Experimental data as given in publication PMC8850458, “The AUTOTAC chemical biology platform for targeted protein degradation via the autophagy-lysosome system” (Nature Communications, 2022).
Where “and” joins values, the source holds several entries; their conditions need not be identical. Equal entries are not always repeated. Each block holds one compound with its values, some of them ahead of it.

What was measured:
NBR1 = target: T1, NBR1 (Homo sapiens, UniProt Q14596); test: Competition pulldown assay with biotinylated YOK-2204 (NBR1); type: binding; conditions: HEK293T
T1 construct: pulldown assay in HEK293T cells using biotinylated YOK-2204; endogenous in cells; host or cells: HEK293T cell extract
T1 sequence (Q14596 whole entry): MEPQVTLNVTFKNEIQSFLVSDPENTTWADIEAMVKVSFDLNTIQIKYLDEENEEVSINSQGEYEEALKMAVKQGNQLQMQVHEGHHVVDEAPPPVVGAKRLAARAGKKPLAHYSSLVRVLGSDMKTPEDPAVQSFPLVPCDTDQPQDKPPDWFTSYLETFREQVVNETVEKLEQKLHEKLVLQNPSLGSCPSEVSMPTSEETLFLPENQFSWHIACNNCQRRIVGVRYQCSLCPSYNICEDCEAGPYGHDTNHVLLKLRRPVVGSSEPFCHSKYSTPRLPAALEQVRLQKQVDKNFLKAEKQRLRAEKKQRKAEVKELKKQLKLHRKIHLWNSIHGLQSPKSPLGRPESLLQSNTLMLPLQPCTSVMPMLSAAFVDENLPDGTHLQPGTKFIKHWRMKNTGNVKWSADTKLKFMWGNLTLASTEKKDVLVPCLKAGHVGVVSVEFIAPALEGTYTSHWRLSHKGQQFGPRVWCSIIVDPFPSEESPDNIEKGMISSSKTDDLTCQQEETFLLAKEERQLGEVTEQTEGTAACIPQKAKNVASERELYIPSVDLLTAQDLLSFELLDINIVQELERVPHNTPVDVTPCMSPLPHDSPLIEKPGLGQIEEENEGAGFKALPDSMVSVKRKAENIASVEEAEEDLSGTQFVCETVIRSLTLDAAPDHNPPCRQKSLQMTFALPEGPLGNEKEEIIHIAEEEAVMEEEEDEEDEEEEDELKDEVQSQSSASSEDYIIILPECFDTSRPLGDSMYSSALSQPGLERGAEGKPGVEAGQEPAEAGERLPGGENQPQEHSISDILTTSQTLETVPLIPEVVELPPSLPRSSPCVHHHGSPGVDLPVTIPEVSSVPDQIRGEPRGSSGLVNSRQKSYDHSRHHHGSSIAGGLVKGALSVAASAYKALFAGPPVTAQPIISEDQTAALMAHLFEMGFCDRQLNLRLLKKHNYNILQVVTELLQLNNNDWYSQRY
Experimental: (§1) A set of synthetic 12-mer peptides corresponding to the N-terminal sequences of the V-BiP (V[19]-[…]-biotin) and V-RGS4 (V^2-[…]-biotin) was C-terminally biotin-conjugated. Alternatively, biotinylated versions of YOK-1304, YT-8-8, YTK-1105, YOK-2204, and PBA were synthesized. To cross-link the above peptides with resin beads, biotin-conjugated peptides, and small molecule were mixed with high-capacity streptavidin agarose resin (Thermo Fisher Scientific) at a ratio of 0.5 mg of peptide per 1 mL of settled resin and incubated on a rotator at 4 °C overnight. After washing five times with PBS, the peptide/small molecule-bead conjugates were diluted with PBS at a 1:1 ratio. To prepare protein extracts, cells were collected by centrifugation and lysed by freezing and thawing at least 10 times in hypotonic buffer [10 mM KCl, 1.5 mM MgCl2, and 10 mM HEPES (pH 7.9)] with a protease inhibitor mix (Sigma). After centrifugation at 15,000 rpm 4 °C for 15 min, proteins were quantified using a BCA protein assay kit (Thermo Fisher Scientific). Total protein (200 μg) diluted in 300 μL of binding buffer [0.05% Tween-20, 10% glycerol, 0.2 M KCl, and 20 mM HEPES (pH 7.9)] were mixed with 50 μL of peptide/small molecule-bead resin and incubated at 4 °C for 2 h on a rotator. The protein-bound beads were collected by centrifugation at 2400 × g for 3 min and washed five times with binding buffer. […]

p62 = target: T2, p62 (Homo sapiens, UniProt Q13501); test: In vitro pulldown assay with biotinylated p62 ligands; type: binding; conditions: biotinylated ligand, HEK293T extracts
T2 construct: expressed in transfected cells; host or cells: HEK293T, transient; whole lysate used
Experimental: A set of synthetic 12-mer peptides corresponding to the N-terminal sequences of the V-BiP (V[19]-[…]-biotin) and V-RGS4 (V^2-[…]-biotin) was C-terminally biotin-conjugated. Alternatively, biotinylated versions of YOK-1304, YT-8-8, YTK-1105, YOK-2204, and PBA were synthesized. To cross-link the above peptides with resin beads, biotin-conjugated peptides, and small molecule were mixed with high-capacity streptavidin agarose resin (Thermo Fisher Scientific) at a ratio of 0.5 mg of peptide per 1 mL of settled resin and incubated on a rotator at 4 °C overnight. After washing five times with PBS, the peptide/small molecule-bead conjugates were diluted with PBS at a 1:1 ratio. To prepare protein extracts, cells were collected by centrifugation and lysed by freezing and thawing at least 10 times in hypotonic buffer [10 mM KCl, 1.5 mM MgCl2, and 10 mM HEPES (pH 7.9)] with a protease inhibitor mix (Sigma). After centrifugation at 15,000 rpm 4 °C for 15 min, proteins were quantified using a BCA protein assay kit (Thermo Fisher Scientific). Total protein (200 μg) diluted in 300 μL of binding buffer [0.05% Tween-20, 10% glycerol, 0.2 M KCl, and 20 mM HEPES (pH 7.9)] were mixed with 50 μL of peptide/small molecule-bead resin and incubated at 4 °C for 2 h on a rotator. The protein-bound beads were collected by centrifugation at 2400 × g for 3 min and washed five times with binding buffer. The beads were resuspended in 25 μL of SDS sample buffer, heated at 95 °C for 5 min, and subjected to SDS/PAGE and immunoblotting.

mutant p62^D129A = target: T3, mutant p62^D129A (Homo sapiens, UniProt Q13501, D129A); test: Pulldown assay with biotinylated YOK-2204, wild-type or D129A p62-myc; type: binding; conditions: HEK293T
T3 construct: expressed in transfected cells; host or cells: HEK293T, transient; cell extract used
Experimental: as §1

[1] = test system: p62 and LC3 punctate structures; test: ICC of p62 and LC3 puncta formation and co-localization in HeLa cells; type: cell-based; conditions: 2.5 μM, 24 h
Experimental: (§2) Cells were cultured on coverslips coated with poly-L-lysine (Sigma) to observe cellular localization of proteins. Using 4% paraformaldehyde in PBS (pH 7.4), the cells were fixed for 15 min at room temperature and washed three times for 5 min with PBS. After fixing, the cells were permeabilized with 0.5% Triton X-100 in PBS solution for 15 min and washed three times with PBS for 5 min. The cells were blocked containing 2% BSA in PBS solution for 1 h at room temperature. Subsequently, the cells were incubated with primary antibody diluted in 2% BSA/PBS solution overnight at 4 °C, followed by washing the cells three times for 10 min with PBS and incubated with Alexa Fluor-conjugated secondary antibody diluted in 2% BSA/PBS for 30 min at room temperature. Using a DAPI-containing mounting medium (Vector Laboratories), the coverslips were mounted on glass slides. Confocal images were taken by laser scanning confocal microscope 510 Meta (Zeiss) and analyzed by Zeiss LSM Image Browser (ver. 4.2.0.121). […] Quantification results are shown as mean ± S.D. or S.E.M. of three independent experiments

LNCaP cells = test: WST-based cell viability assay in LNCaP cells; conditions: LNcaP, duplicates
[2] = WST-based cell viability assay in LNCaP cells; conditions: human, LNCaP cells
VCaP cells = test system: VCaP cells; design: method as in printed; conditions: reviewer comment, ref not given; cited from earlier work
[3] = test system: p62-positive and WIPI2-positive punctate structures; test: ICC of WIPI2-p62 co-localization in HeLa cells; type: cell-based; conditions: HeLa, endogenous WIPI2, 2.5 μM, 24 h
Experimental: as §2
Supplementary Fig. 2. Characterization of p62-ZZ ligands (a, c, e) 3-D modeling of p62 […]
μM, 6 h). (m) Quantification of l for co-localization (n=3, 50 cells). Scale bar, 10 µm. (n) […]

[4] = test system: p62 and the lysosomal marker LAMP1; test: ICC of LAMP1-p62 co-localization in HeLa cells; type: cell-based; conditions: 2.5 μM, 24 h
Experimental: as §2, with “experiments […]” for “experiments”
Supplementary Fig. 2. Characterization of p62-ZZ ligands (a, c, e) 3-D modeling of p62 ZZ ligands YOK-1304, YOK-2204 and YTK-105, respectively. (b, d, f) 2-D diagram for YOK-1304, YOK-2204 and YTK-105, respectively. (g,h) ICC of HeLa cells treated with the indicated compounds (2.5 μM, 24 h). Scale bar, 10 μm. (i) Quantification of h for co-localization (n=3, 50 cells). (j) ICC of HeLa cells treated with the indicated compounds (2.5 μM, 24 h). Scale bar, 10 μm. (k) Quantification of j for co-localization (n=3, 50 cells). (l) ICC of HeLa cells transiently expressing WIPI2-GFP and treated with the indicated compounds (2.5 μM, 6 h). (m) Quantification of l for co-localization (n=3, 50 cells). Scale bar, 10 µm. (n) […]

[5] = WST assay viability relative to con = 100, LNcaP, duplicates
[6] = WST assay viability, AVG %, LNcaP

- interaction with NBR1 (NBR1): not NBR1
- binding of p62 in pulldown (p62): bound
- interaction with mutant p62^D129A (mutant p62^D129A): severely crippled
SMILES: CC(C)NCC(O)COc1ccc(OCCc2ccccc2)c(OCCc2ccccc2)c1 (centres unmarked) [YOK-2204]
- LC3 puncta formation, AVG of cells of 50 [1]: 44.6667
- LC3 puncta formation, percentage AVG [1]: 89.3333%
- p62-LC3 colocalization, AVG of cells of 50 [1]: 37
- p62-LC3 colocalization, percentage AVG [1]: 74%
- p62 puncta formation, AVG of cells of 50 [1]: 40.3333
- p62 puncta formation, percentage AVG [1]: 80.6667%
- LC3 puncta formation, cells of 50 cells counted ([1]; single experiments): 47 and 46 and 41
- p62-LC3 colocalization, cells of 50 cells counted ([1]; single experiments): 43 and 37 and 31
- p62 puncta formation, cells of 50 cells counted ([1]; single experiments): 43 and 37 and 41
- WST assay raw reading (LNCaP cells; 0.01uM): 2.286 and 1.976
- WST assay viability relative to con = 100 (LNCaP cells; 0.01uM): 93.5242
- WST assay raw reading (LNCaP cells; 0.1uM): 2.213 and 1.938
- WST assay viability relative to con = 100 (LNCaP cells; 0.1uM): 91.6264
- WST assay raw reading (LNCaP cells; 1uM): 2.21 and 1.972
- WST assay viability relative to con = 100 (LNCaP cells; 1uM): 93.3245
- WST assay raw reading (LNCaP cells; 10uM): 2.305 and 2.064
- WST assay viability relative to con = 100 (LNCaP cells; 10uM): 97.9191
- WST assay raw reading (LNCaP cells; 50uM): 2.575 and 2.249
- WST assay viability relative to con = 100 (LNCaP cells; 50uM): 107.158
- WST assay raw reading (LNCaP cells; 100uM): 2.662 and 2.714
- WST assay viability relative to con = 100 (LNCaP cells; 100uM): 130.381
- viability at 0.01 µM [2, 5]: 109%
- viability at 0.1 µM [2, 5]: 105%
- viability at 1 µM [2, 5]: 105%
- viability at 10 µM [2, 5]: 110%
- viability at 50 µM [2, 5]: 123%
- viability at 100 µM [2, 5]: 128%
- viability at 0.01 µM [2, 6]: 101%
- viability at 0.1 µM [2, 6]: 98.5%
- viability at 1 µM [2, 6]: 99.3%
- viability at 10 µM [2, 6]: 104%
- viability at 50 µM [2, 6]: 115%
- viability at 100 µM [2, 6]: 129%

SMILES: N#Cc1ccc(O[C@H]2CC[C@H](NC(=O)c3ccc(N4CCC(CN5CCN(c6cc7c(cc6F)C(=O)N(C6CCC(=O)NC6=O)C7=O)CC5)CC4)nn3)CC2)cc1Cl (some centres unmarked) [ARV-110]
- IC50, proliferation assay (VCaP cells): low nM range

- binding of p62 in pulldown (p62): bound
SMILES: OCCNCCNCc1cccc(OCc2ccc(F)cc2)c1 [YT-8-8]
- WIPI2-p62 colocalization, AVG of cells of 50 [3]: 43.3333
- WIPI2-p62 colocalization, percentage AVG [3]: 86.6667%
- WIPI2-p62 colocalization, cells of 50 cells counted ([3]; single experiments): 42 and 39 and 49
- LAMP1-p62 colocalization, AVG of cells of 50 [4]: 33
- LAMP1-p62 colocalization, percentage AVG [4]: 66%
- LAMP1-p62 colocalization, cells of 50 cells counted ([4]; single experiments): 32 and 38 and 29
